Measured values taken from the supplement of paper PMC10307832.

Experiments:
Assay in all cases: relative viability (nuclei count vs DMSO), 5 days (fraction); higher = more cells survive
Motesanib + Olaparib = compound: CC1(C)CNc2cc(NC(=O)c3cccnc3NCc3ccncc3)ccc21 [Motesanib] + O=C(c1cc(Cc2n[nH]c(=O)c3ccccc23)ccc1F)N1CCN(C(=O)C2CC2)CC1 [Olaparib] (partner 8 µM)
Outline: (§1)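 After 5 days of treatment, lung cancer cells in 1536-well plates were fixed and stained in a single step (final 0.05% Triton X-100, 1% formaldehyde, 1 ug/ml Hoechst) and their nuclei counted on 4× images. Treatment had been applied by pin tool the day after seeding as one drug alone or as a fixed anchor-drug dose with five library-drug doses (not always all listed) in √10 steps. Relative viability is the nuclei count of treated wells divided by that of vehicle wells, and values are medians of duplicate plates.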

[1] = compound: C[C@@]1(C(=O)Nc2ccc(F)nc2)CCCN1c1nc(Nc2cc(C3CC3)n[nH]2)c2cccn2n1 + CC(=O)Nc1cccc(-n2c(=O)n(C3CC3)c(=O)c3c(Nc4ccc(I)cc4F)n(C)c(=O)c(C)c32)c1 [Trametinib] (partner 0.02 µM)
Outline: as §1

[2] = compound: C[C@@]1(C(=O)Nc2ccc(F)nc2)CCCN1c1nc(Nc2cc(C3CC3)n[nH]2)c2cccn2n1 + COc1cccc2cc(-c3nc([C@H]4CC[C@H](C(=O)O)CC4)n4ncnc(N)c34)[nH]c12 [OSI-027] (partner 0.5 µM)
Outline: as §1

[3] = compound: C[C@@]1(C(=O)Nc2ccc(F)nc2)CCCN1c1nc(Nc2cc(C3CC3)n[nH]2)c2cccn2n1 + C[C@@H](Oc1cc(-c2cnn(C3CCNCC3)c2)cnc1N)c1c(Cl)ccc(F)c1Cl [Crizotinib] (partner 1 µM)
Outline: as §1

Cell Line | relative viability (Motesanib + Olaparib; first compound 0.01 µM) | relative viability (Motesanib + Olaparib; first compound 0.3162 µM) | relative viability (Motesanib + Olaparib; first compound 1 µM) | relative viability ([1]; first compound 0.04 µM) | relative viability ([1]; first compound 0.1265 µM) | relative viability ([1]; first compound 0.4 µM) | relative viability ([1]; first compound 1.265 µM) | relative viability ([2]; first compound 0.04 µM) | relative viability ([2]; first compound 1.265 µM) | relative viability (Motesanib + Olaparib; first compound 0.03162 µM) | relative viability (Motesanib + Olaparib; first compound 0.1 µM) | relative viability ([2]; first compound 0.1265 µM) | relative viability ([2]; first compound 0.4 µM) | relative viability ([3]; first compound 0.04 µM) | relative viability ([3]; first compound 0.1265 µM) | relative viability ([3]; first compound 0.4 µM) | relative viability ([3]; first compound 1.265 µM)
NCI-H1648 | 0.563 | 1.1 | 1.06 | 0.391 | 0.285 | 0.282 | 0.39 | 0.25 | 0.229 |  |  |  |  |  |  |  | 
SK-MES-1 | 0.736 | 0.677 | 0.575 | 0.604 | 0.483 | 0.522 | 0.633 | 0.615 | 0.286 | 0.725 | 0.736 | 0.317 | 0.357 | 1.09 | 0.84 | 0.861 | 0.879
HCC-366 | 0.278 | 0.352 | 0.397 | 0.4 | 0.197 | 0.194 | 0.178 | 0.861 | 0.437 | 0.375 | 0.403 | 0.585 | 0.462 | 0.612 | 0.442 | 0.388 | 0.0918
201T | 0.803 | 0.88 | 0.872 | 0.718 | 0.663 | 0.637 | 0.676 | 0.519 | 0.306 | 0.828 | 0.852 | 0.356 | 0.35 | 0.993 | 0.943 | 0.933 | 0.973
HCC-827 | 0.616 | 0.713 | 0.548 | 0.518 | 0.499 | 0.45 | 0.557 | 0.393 | 0.724 | 0.746 | 0.652 | 0.782 | 0.707 | 0.897 | 0.899 | 0.901 | 0.9
NCI-H647 | 0.48 | 0.629 | 0.611 | 0.465 | 0.419 | 0.383 | 0.397 | 0.574 | 0.734 | 0.638 | 0.496 | 0.404 | 0.484 | 1.07 | 1.03 | 0.841 | 0.447
NCI-H2023 | 0.469 | 0.496 | 0.425 | 0.454 | 0.387 | 0.297 | 0.277 | 0.3 | 0.116 | 0.409 | 0.515 | 0.088 | 0.105 | 0.467 | 0.424 | 0.318 | 0.119
NCI-H520 | 0.319 | 0.297 | 0.392 | 0.753 | 0.571 | 0.523 | 0.591 | 0.328 | 0.22 | 0.32 | 0.294 | 0.297 | 0.257 | 0.802 | 0.499 | 0.618 | 0.636
RERF-LC-KJ | 0.981 | 1.08 | 1.04 | 0.84 | 0.665 | 0.639 | 0.685 | 0.51 | 0.346 | 0.991 | 0.896 | 0.306 | 0.334 | 0.874 | 0.733 | 0.732 | 0.801
NCI-H1703 | 0.442 | 0.223 | 0.232 |  |  |  |  |  |  | 0.305 | 0.318 |  |  | 0.586 | 0.535 | 0.792 | 
Calu-6 | 0.56 | 0.546 | 0.536 |  |  |  |  |  |  | 0.603 | 0.456 |  |  | 0.881 | 0.743 | 0.597 | 0.491
NCI-H1299 | 0.938 | 1.02 | 0.898 |  |  |  |  |  |  | 0.973 | 1.03 |  |  | 0.963 | 0.956 | 0.97 | 0.96
ABC-1 | 0.895 | 1.15 | 0.869 |  |  |  |  | 0.382 | 0.298 | 0.66 | 0.58 | 0.285 | 0.225 | 1.01 | 0.695 | 0.7 | 0.272
NCI-H1793 | 0.798 | 0.904 | 0.844 | 0.4 | 0.355 | 0.392 | 0.459 | 0.254 | 0.196 | 0.827 | 0.761 | 0.195 |  |  |  |  | 
SW 900 | 0.904 | 0.9 | 0.917 | 0.764 | 0.805 | 0.808 | 0.572 | 0.549 | 0.551 | 0.677 | 0.811 | 0.518 | 0.464 |  |  |  | 
NCI-H1563 |  |  |  |  |  |  |  | 0.721 | 0.631 |  |  | 0.599 | 0.609 | 0.829 | 0.91 | 0.947 | 0.828
A549 | 0.333 | 0.438 | 0.402 |  |  |  |  |  |  | 0.402 | 0.407 |  |  | 0.52 | 0.402 | 0.248 | 0.089
NCI-H2342 | 0.472 | 0.469 | 0.463 | 0.668 | 0.813 | 0.605 | 0.7 | 0.636 | 0.479 | 0.569 | 0.403 | 0.561 | 0.448 |  |  |  | 
NCI-H1623 |  |  |  |  |  |  |  | 0.423 | 0.302 |  |  | 0.32 | 0.307 |  |  |  | 
NCI-H522 | 0.691 | 0.677 | 0.876 | 0.692 | 0.696 | 0.595 | 0.586 | 0.589 | 0.704 | 0.674 | 0.594 | 0.36 | 0.735 |  |  |  | 
NCI-H1395 | 0.442 | 0.493 | 0.468 | 1.02 | 0.863 | 0.901 | 0.989 | 0.727 | 0.665 | 0.496 | 0.455 | 0.561 | 0.668 |  |  |  | 
IA-LM | 0.757 | 0.855 | 0.822 |  |  |  |  |  |  | 0.834 | 0.722 |  |  | 0.68 | 0.983 | 0.646 | 0.456
EBC-1 | 0.732 | 0.729 | 0.783 |  |  |  |  |  |  | 0.674 | 0.694 |  |  | 0.195 | 0.168 | 0.211 | 0.2
